The text below walks through data of ChEMBL document CHEMBL3243923, “Linked Aryl Aryloxypropanolamines as a new class of lipid catabolis agents” (J Med Chem, 1978).

Calls of active or inactive are those of the source. No cut-off for these calls is given here. A value given as a limit tells only on which side of the number the result lay.

Data set [1] has as its system Mus musculus. Put plainly: Antiobesity activity in mouse assessed as reduction in utero fat at 0.01% administered every day through diet for 10 days measured after day 10 relative to control. In kind it is functional. Further details: scale not given: the % may be the effect or the level left.
Data set [2] relates to Mus musculus. Put plainly: (§1) Chronic toxicity in po dosed mouse assessed as mortality administered as qd for 21 days. In kind it is organism-based. Particulars: in vivo, 504 h.
The subject of data set [3] is Mus musculus. Put plainly: Toxicity in mouse assessed as liver hypertrophy at 1000 mg/kg, po administered for 21 days. The format is organism-based. Also on record: dose 1000 mg/kg, route oral. The settings on record: in vivo, 504 h.
For data set [4], the system named is Mus musculus. Put plainly: Effect on blood glucose level in mouse at 0.01% administered every day through diet for 10 days measured on day 10 by glucose oxidase method. The format is functional, organism-based.
Data set [5] can be described thus: as §1. In kind it is organism-based. The settings on record: in vivo, read-out: MNTD.
Data set [6] has as its system Mus musculus. Put plainly: Antiobesity activity in mouse assessed as reduction in utero fat administered every day through diet for 10 days measured after day 10. The format is functional. The settings on record: 240 h.
In data set [7] the test system is Mus musculus. Put plainly: Reduction of plasma insulin level in mouse at 0.01% administered every day through diet for 10 days measured on day 10 by double antibody method relative to control. In kind it is functional. Further details: scale not given: the % may be the effect or the level left.
Data set [8] has as its system Mus musculus. Put plainly: Antiobesity activity in mouse assessed as reduction in utero fat at 0.02% administered every day through diet for 10 days measured after day 10 relative to control. In kind it is functional. Further details: scale not given: the % may be the effect or the level left.
Data set [9] in a line: Therapeutic index, ratio of MNTD for chronic toxicity in po dosed mouse to ED25 for antiobesity activity in mouse assessed as reduction in utero fat. In kind it is organism-based. Particulars: in vivo, read-out: TI.
Data set [10] has as its system Rhesus monkey. Put plainly: Toxicity in monkey assessed as estrogenic activity. The format is organism-based, Macaca mulatta. Particulars: in vivo.
For data set [11], the species on record is Rattus norvegicus. Put plainly: Toxicity in rat assessed as lymphopenia. In kind it is organism-based. The settings on record: in vivo.
Data set [12] deals with Rattus norvegicus. Put plainly: Toxicity in rat assessed as decrease in liver weight at 80 mg/kg administered every day through diet for 5 weeks measured after 5th week relative to control. In kind it is organism-based. Also on record: dose 80 mg/kg; scale not given: the % may be the effect or the level left. Particulars: in vivo, po, 840 h.
In data set [13] the test system is Canis familiaris. Put plainly: Antiobesity activity in Beagle dog assessed as decrease in food intake at 4 mg/kg administered every day through gelatin capsule for 6 weeks measured every day 2 hrs post feeding relative to placebo control. In kind it is functional, Canis lupus familiaris. Also on record: scale not given: the % may be the effect or the level left.

In data set [14] the test system is Rattus norvegicus. Put plainly: Toxicity in rat assessed as increase in adrenal weight at 80 mg/kg, po qd administered for 5 days measured on day 6 relative to control. The format is organism-based. The settings on record: in vivo, 120 h. Further details: dose 80 mg/kg, route oral.
Data set [15] concerns Rattus norvegicus. Put plainly: Antiobesity activity in rat assessed as reduction in food intake at 80 mg/kg administered every day through diet for 5 weeks measured every week for 5 weeks relative to control. Also on record: scale not given: the % may be the effect or the level left. In kind it is functional.
In data set [16] the test system is Rattus norvegicus. Put plainly: Toxicity in rat assessed as increase in adrenal weight at 80 mg/kg administered every day through diet for 5 weeks measured after 5th week relative to control. In kind it is organism-based. Further details: dose 80 mg/kg. The settings on record: in vivo, po, 840 h.
Data set [17] relates to Rattus norvegicus. Put plainly: Antiobesity activity in rat assessed as reduction in body weight at 80 mg/kg administered every day through diet for 5 weeks measured for 5 weeks relative to control. In kind it is functional. Also on record: scale not given: the % may be the effect or the level left.
The test system of data set [18] is Rattus norvegicus. Put plainly: Antiobesity activity in rat assessed as reduction in food intake at 80 mg/kg, po qd administered for 5 days measured every day for 5 days relative to control. The format is functional. Also on record: scale not given: the % may be the effect or the level left.
Data set [19] relates to Rattus norvegicus. Put plainly: Antiobesity activity in rat assessed as reduction in body weight at 80 mg/kg, po qd administered for 5 days measured on day 6 relative to control. The format is functional. Also on record: scale not given: the % may be the effect or the level left.
In data set [20] the test system is Canis familiaris. Put plainly: Toxicity in Beagle dog assessed as emesis up to 150 mg/kg administered through gelatin capsule for every week for 6 weeks. In kind it is organism-based, Canis lupus familiaris. Particulars: in vivo, 1008 h. Also on record: dose 150 mg/kg.
The species named for data set [21] is Rattus norvegicus. Put plainly: Toxicity in rat assessed as estrogenic activity. Particulars: in vivo. The format is organism-based.
In data set [22] the test system is Canis familiaris. Put plainly: Antiobesity activity in Beagle dog assessed as decrease in body weight at 4 mg/kg administered every day through gelatin capsule for 6 weeks measured every week for 6 weeks relative to placebo control. In kind it is functional, Canis lupus familiaris. Further details: scale not given: the % may be the effect or the level left.
The test system of data set [23] is Rattus norvegicus. Put plainly: Antiobesity activity in rat assessed as reduction in utero fat at 80 mg/kg administered every day through diet for 5 weeks measured after 5th week relative to control. The format is functional. Further details: scale not given: the % may be the effect or the level left.
The subject of data set [24] is Rattus norvegicus. Put plainly: Toxicity in rat assessed as decrease in liver weight at 80 mg/kg, po qd administered for 5 days measured on day 6 relative to control. The format is organism-based. Further details: dose 80 mg/kg, route oral; scale not given: the % may be the effect or the level left. Particulars: in vivo, 120 h.
The subject of data set [25] is Mus musculus. Put plainly: Reduction of plasma insulin level in mouse at 0.04% administered every day through diet for 10 days measured on day 10 by double antibody method relative to control. In kind it is functional. Further details: scale not given: the % may be the effect or the level left.
Data set [26] has as its system Rattus norvegicus. Put plainly: Antiobesity activity in rat assessed as reduction in utero fat at 100 mg/kg, po qd administered for 5 days measured on day 6 relative to control. Further details: scale not given: the % may be the effect or the level left. The format is functional.
Data set [27] relates to Rattus norvegicus. Put plainly: Toxicity in rat assessed as increase in adrenal weight at 100 mg/kg, po qd administered for 5 days measured on day 6 relative to control. Particulars: in vivo, 120 h. In kind it is organism-based. Further details: dose 100 mg/kg, route oral.
The subject of data set [28] is Rattus norvegicus. Put plainly: Antiobesity activity in rat assessed as reduction in food intake at 100 mg/kg, po qd administered for 5 days measured every day for 5 days relative to control. In kind it is functional. Further details: scale not given: the % may be the effect or the level left.
Data set [29] has as its system Rattus norvegicus. Put plainly: Toxicity in rat assessed as increase in liver weight at 100 mg/kg, po qd administered for 5 days measured on day 6 relative to control. The format is organism-based. Further details: dose 100 mg/kg, route oral. The settings on record: in vivo, 120 h.
The subject of data set [30] is Rattus norvegicus. Put plainly: Antiobesity activity in rat assessed as reduction in body weight at 100 mg/kg, po qd administered for 5 days measured on day 6 relative to control. The format is functional. Further details: scale not given: the % may be the effect or the level left.
For data set [31], the system named is Mus musculus. Put plainly: Antiobesity activity in mouse assessed as reduction in utero fat at 0.005% administered every day through diet for 10 days measured after day 10 relative to control. The format is functional. Also on record: scale not given: the % may be the effect or the level left.
Data set [32] deals with Mus musculus. Put plainly: Antiobesity activity in mouse assessed as reduction in utero fat at 0.08% administered every day through diet for 10 days measured after day 10 relative to control. The format is functional. Further details: scale not given: the % may be the effect or the level left.
The test system of data set [33] is Mus musculus. Put plainly: Antiobesity activity in mouse assessed as reduction in utero fat at 0.04% administered every day through diet for 10 days measured after day 10 relative to control. In kind it is functional.
Data set [34] deals with Canis familiaris. Put plainly: Toxicity in Beagle dog assessed as emesis up to 10 mg/kg administered through gelatin capsule for every week for 6 weeks. The settings on record: in vivo, 1008 h. The format is organism-based, Canis lupus familiaris. Further details: dose 10 mg/kg.
For data set [35], the system named is Canis familiaris. Put plainly: Antiobesity activity in Beagle dog assessed as decrease in food intake at 4 mg/kg administered every day through gelatin capsule for 6 weeks measured 9 days post last dose. In kind it is functional, organism-based. Also on record: dose 4 mg/kg. Particulars: Canis lupus familiaris.
The subject of data set [36] is Mus musculus. Put plainly: Effect on blood glucose level in mouse at 0.04% administered every day through diet for 10 days measured on day 10 by glucose oxidase method. The format is functional, organism-based.

`CC(C)NCC(O)COc1ccc(-c2cccs2)cc1` (stereo not given): the Activity is on record as 34% in [1] and “Toxic” in data set [2].
Turning to `CC(C)NCC(O)COc1c(C(C)(C)C)cc(/C=C/c2cccs2)cc1C(C)(C)C` (stereo not given), the Activity entry in data set [3] is “Non-toxic”; in [7], 46%; in [8], 30%. Further, in [4], the outcome was inactive. Further, in data set [5], the MTD at 504 h was below 25 mg/kg. Also, in data set [6], the ED25 was determined as 6 mg/kg. Further, the selectivity ratio in data set [9] is below 4.1.
With `CC(C)NCC(O)COc1c(C(C)(C)C)cc(/C=C/c2ccccc2)cc1C(C)(C)C` (racemic) [listing 1 of 2 here], the Activity result in [10] is reported as “Non-toxic”; in [11], “Toxic”; in data set [12] it was 3.4%; in [3] it was “Non-toxic”; in data set [13], 40%; in [14], 21%. For the same compound, the Activity in [1] is reported as 26%; in [15], 10%; in data set [16], 16%; in data set [17], 9%; in data set [18] it was 79%; in data set [19], 10%. The Activity result in data set [20] is “Toxic”; in data set [21], “Non-toxic”; in data set [22], 13%; in data set [23], 35%; in data set [24], 9%; in [25], 27%. For the same compound, in [5], the MTD at 504 h amounted to 50 mg/kg. Also, the ED25 in data set [6] was 10 mg/kg. Also, the selectivity ratio in data set [9] is 5.
As for `CC(C)NCC(O)COc1ccc(Oc2ccc(Cl)cc2)cc1` (stereo not given), the Activity entry in [3] is given as “Non-toxic”; in [26] it was 18%; in data set [27], 8%; in [28], 22%; in data set [29] it was 11%; in data set [30], 1%. The Activity in [8] is on record as 25%. In data set [5], the MTD at 504 h is 100 mg/kg. The ED25 in data set [6] was 18 mg/kg. The selectivity ratio in [9] came to 5.5.
For `CC(C)NCC(O)COc1c(C(C)(C)C)cc(-c2cccs2)cc1C(C)(C)C.O=C(O)/C=C\C(=O)O` (stereo not given), the Activity is 33% in [31] and “Toxic” in [2].
On to `CCNC(C)Cc1cccc(C(F)(F)F)c1` (stereo not given) [FENFLURAMINE], for which the Activity in data set [32] is listed as 20%; in [34] it was “Non-toxic”. Also, the outcome in [33] was inactive.
Turning to `CC(C)NCC(O)COc1c(C(C)(C)C)cc(/C=C/c2ccccc2)cc1C(C)(C)C` (racemic) [listing 2 of 2 here], the outcome in data set [35] and in data set [36] was inactive.
Regarding `C[C@H](N)Cc1ccccc1` [DEXTROAMPHETAMINE], the Activity entry is recorded as “Toxic” in data set [11], 34% in [1] and 59% in [33].
For `COc1ccc(/C=C/c2cc(C(C)(C)C)c(OCC(O)CNC(C)C)c(C(C)(C)C)c2)cc1` (stereo not given), the results for the Activity result in data set [3] and in [8] were “Non-toxic” and 26%, respectively. For the same compound, the MTD at 504 h in [5] is 25 mg/kg. For the same compound, the ED25 in data set [6] worked out at 20 mg/kg. The selectivity ratio in [9] was 1.25.
As for `CC(C)NCC(O)COc1c(C(C)(C)C)cc(-c2ccccc2)cc1C(C)(C)C.Cl` (stereo not given), the Activity result in data set [3] was “Toxic”; in data set [26], 28%; in data set [27], 16%; in data set [33] it was 28%; in data set [28] it was 51%; in [29], 21%. In addition, in [30], the Activity is reported as 4%. For the same compound, the MTD at 504 h in data set [5] is 100 mg/kg. Further, the ED25 in [6] worked out at 20 mg/kg. For the same compound, the selectivity ratio in data set [9] worked out at 5.
